This note sets out measurements from US20180105492A1, “COMPOUNDS DERIVED FROM 3-ALKYLAMINE-1H-INDOLYL ACRYLATE AND THEIR USE IN THE TREATMENT OF NEURODEGENERATIVE DISEASES” (FUNDACION PARA LA INVESTIGACION BIOMEDICA DEL HOSPITAL …, priority 2014, published 2018).

One series concerns SH-SY5Y cells. The experiment in a line: Neuroprotection against oxidative stress induced by menadione, pre- and co-incubation, MTT. The class given is cell-based. Conditions: Homo sapiens, 24 h, compound 1 μM pre- and co-incubation, Menadione (8 mM); for viability at 1 µM: read-out: % Survival. The protocol:
SH-SY5Y cells [ECACC 94030304], in 5 to 16 passage after defreezing were maintained in Eagle media modified by Dulbecco (DMEM) containing 15 non-essential amino acids and supplemented with 10% fetal bovine serum, 1 mM glutamine, 50 units/mL penicillin/streptomycin (obtained from GIBCO, Madrid, Spain). Cells were seeded in flasks containing supplemented media and were maintained in an incubator at 37° C. and 5% CO2. 1:4 passes were performed twice per week. For the experiments, cells were seeded in 24 well-plates at a density of 2×10^5 cells/well, or in 96 well-plates at a density of 8×10^4 cells/well. For cytotoxicity experiments, cells were treated with the compounds before confluence with DMEM media supplemented with fetal bovine serum 1%.
(§1) In order to assess cellular viability, we measured the metabolic reduction of 3-(4,5-Dimethylthiazol-2-yl)-2,5 diphenyltetrazolium bromide (MTT). MTT is an indirect assay to measure cellular viability. It is a colorimetric method based on the reduction of 3-(4,5-Dimethylthiazol-2-yl)-2,5 diphenyltetrazolium. This process is performed by the mitochondrial enzyme succinate-dehydrogenase present in metabolic active cells. Thus, the water-soluble yellow MTT (tetrazolium salt) is transformed into a insoluble purple compound (formazan). Quantity of living cells is directly proportional to the quantity of formazan (Mosmann, 1983, J Immunol Methods, 65: 55-63). […] Therefore, with this assay we can measure cellular surviving and proliferation and also, we can determine the cytotoxicity of potential neuroprotective compounds. In order to assess cellular viability in SH-SY5Y cell line, we added 30 μl/well of MTT (5 mg/mL) and after 2 h, medium was carefully removed to avoid losing the formazan and was diluted in 300 μL of DMSO. Afterwards, samples were transferred to a 96 well-plate and the absorbance was measured at 570 nm using a absorbance/fluorescence reader FluoStar optima®. Every MTT assay was performed in triplicates. Absorbance values obtained with the toxic alone were subtracted to the absorbance values obtained in basal conditions (without treatment). That result was considered as the 100% of cell death and the values obtained with the compounds in the presence of the toxic stimulus were normalized as percentages of that value. For determining the surviving percentage, those percentages of cell death were subtracted to 100.
Neuroprotection elicited by the compounds of the invention 1-16: The activation of Nrf2-ARE pathway by different compounds exerts neuroprotective effects against toxic models based on oxidative stress via the expression of cytoprotective genes. […] We evaluated the neuroprotective potential of the compounds using the human neuroblastoma cell line using the following cytotoxicity models: 1) oxidative stress induced by rotenone+oligomycin, both blockers of the electron transport chain as previously described (Halliwell, 1992, J Neurochem, 59: 1609-23, Newhouse y col., 2004, Toxicol Sci, 79: 137-46), and 2) cytotoxicity induced by the electrophilic compound Menadione. This compound produces oxidative stress after being metabolized by microsomal enzymes in the cell which produces hydroxyl radical and oxygen reactive species. As a consequence, there is a depolarization of mitochondrial membrane generating a release of apoptotic factors such as cytochrome c, and activating the caspase cascade (Loor y col., 2010, Free Radic Biol Med, 49: 1925-36, Chuang y col., 2002, Cancer Res, 62: 6246-54). Caspase 3 activation can produce the lysis of proteins and induce DNA fragmentation, leading to cell death (Gerasimenko y col., 2002, J Cell Sci, 115: 485-97).
To further confirm the neuroprotective capacity in another model of oxidative stress, menadione was selected as toxic stimulus. […]

For the next series, the system named is HepG2 cells. The experiment in a line: Hepatotoxicity in HepG2 cell line, reduction of cell viability (MTT). It counts as cell-based. The protocol:
as §1
In general, compounds capable of inducing the transcription factor Nrf2 may have a hepatotoxic effect, due to the electrophilic character that generally characterizes them. The derivatives objects of this invention were designed to avoid this toxicity and to improve its safety profile. The liver plays an essential role in the metabolism of endogenous and exogenous compounds. Hepatocytes capture these compounds and after metabolizing them, they are eliminated by different mechanisms. Metabolized compounds usually have less pharmacological activity and less toxicity than the corresponding active principles. However, in certain cases, the active principles or their metabolites may be toxic to the hepatocytes. Hepatic toxicity is one of the leading causes of drug withdrawal from preclinical studies. […] In addition, these cells have been defined by the European Medicines Agency (EMA) as a model of hepatoxicity by measuring the induction of apoptosis and/or cell survival. Therefore, the safety profile of the compounds object of the present invention was evaluated in the HepG2 hepatic cancer cell line. HepG2 cells were cultured in T75 flask using EMEM as culture medium supplemented with non-essential amino acids, 10% fetal bovine serum, 50 units/mL penicillin and 50 μg/mL streptomycin (reagents from GIBCO, Madrid, Spain). Cultures were maintained in an incubator with an O2/CO2 gas mixture (95/5%) at 37° C. with a humid atmosphere and two passes per week were made when they reached 90% of confluence. All experiments were performed on cells that were between passages 5 and 15. For the experiments, the cells were plated in 96-well plates at a density of 4×10 ^4 cells/well in 200 μl of culture medium. After 24 h in culture, the medium was removed and replaced with 100 μL of the corresponding solution of the compounds of the invention in culture medium at the selected concentrations (1, 10, 30 and 100 μM). The compounds were studied in triplicate, including in each experiment 3 wells without treatment, which was considered as 100% of viability (baseline conditions). After 24 h of incubation with the treatments, cell viability was assessed by the MTT reduction method. […]

Where [1] appears, read: 24 h incubation, MTT, concentration reducing viability to 50% of basal.

A value given as a limit tells only on which side of the number the result lay.

`C/C=C/C(=O)Oc1ccc2[nH]cc(CCNC(C)=O)c2c1` [Compound 1, 3-(2-acetamidoethyl)-1H-indol-5-yl (E)-2-butenoate]: in the series on SH-SY5Y cells, the % protection against menadione toxicity at 1 µM was 63.3% and the viability at 1 µM amounted to 87.7 ± 1.74%. In the series with HepG2 cells (setting [1]), the “HepG2 LD50” value is more than 100 µM.

In the case of `CC(=O)NCCc1c[nH]c2ccc(OC(=O)/C=C/c3ccccc3)cc12` [Compound 2, 3-(2-acetamidoethyl)-1H-indol-5-yl cinnamate], in the series on SH-SY5Y cells, the % protection against menadione toxicity at 1 µM was found to be 32.5% and the viability at 1 µM worked out at 74 ± 3.18%. Further, in the series on HepG2 cells (setting [1]), the “HepG2 LD50” value is more than 100 µM.

In the case of `CC(=O)NCCc1c[nH]c2ccc(OC(=O)/C=C/c3ccc(C)cc3)cc12` [Compound 3, 3-(2-acetamidoethyl)-1H-indol-5-yl (E)-3-(4-methylphenyl)acrylate], in the series with SH-SY5Y cells, the % protection against menadione toxicity at 1 µM was determined as 25% and the viability at 1 µM came to 71.4 ± 2.43%. In addition, the “HepG2 LD50” value in the series with HepG2 cells (setting [1]) was more than 100 µM.

For the compound `COc1ccccc1/C=C/C(=O)Oc1ccc2[nH]cc(CCNC(C)=O)c2c1` [Compound 4, 3-(2-acetamidoethyl)-1H-indol-5-yl (E)-3-(2-methoxyphenyl)acrylate], in the series on SH-SY5Y cells, the % protection against menadione toxicity at 1 µM amounted to 67.1% and the viability at 1 µM came out at 90.5 ± 1.97%. Moreover, the “HepG2 LD50” value in the series on HepG2 cells (setting [1]) was more than 100 µM.

Turning to `COc1cccc(/C=C/C(=O)Oc2ccc3[nH]cc(CCNC(C)=O)c3c2)c1` [Compound 5, 3-(2-acetamidoethyl)-1H-indol-5-yl (E)-3-(3-methoxyphenyl)acrylate], in the series with SH-SY5Y cells, the % protection against menadione toxicity at 1 µM amounted to 38.1% and the viability at 1 µM amounted to 76 ± 3.31%. In the series on HepG2 cells (setting [1]), the “HepG2 LD50” value is more than 100 µM.

In the case of `COc1ccc(/C=C/C(=O)Oc2ccc3[nH]cc(CCNC(C)=O)c3c2)cc1` [Compound 6, 3-(2-acetamidoethyl)-1H-indol-5-yl (E)-3-(4-methoxyphenyl)acrylate], in the series on SH-SY5Y cells, the % protection against menadione toxicity at 1 µM is 35.8% and the viability at 1 µM worked out at 74.7 ± 2.91%. Also, the “HepG2 LD50” value with HepG2 cells (setting [1]) was more than 100 µM.

With `CC(=O)NCCc1c[nH]c2ccc(OC(=O)/C=C/c3ccc(O)cc3)cc12` [Compound 7, 3-(2-acetamidoethyl)-1H-indol-5-yl (E)-3-(4-hydroxyphenyl)acrylate], in the series on SH-SY5Y cells, the % protection against menadione toxicity at 1 µM is 61.8% and the viability at 1 µM is 86.8 ± 3.24%. In the series with HepG2 cells (setting [1]), the “HepG2 LD50” value was more than 100 µM.

Turning to `COc1cc(/C=C/C(=O)Oc2ccc3[nH]cc(CCNC(C)=O)c3c2)ccc1O` [Compound 8, 3-(2-acetamidoethyl)-1H-indol-5-yl (E)-3-(4-hydroxy-3-methoxyphenyl)acrylate], in the series with SH-SY5Y cells, the % protection against menadione toxicity at 1 µM was 69.4% and the viability at 1 µM was found to be 89.9 ± 1.86%. In addition, the “HepG2 LD50” value in the series on HepG2 cells (setting [1]) was more than 100 µM.

With `CC(=O)NCCc1c[nH]c2ccc(OC(=O)/C=C/c3ccc(F)cc3)cc12` [Compound 9, 3-(2-acetamidoethyl)-1H-indol-5-yl (E)-3-(4-fluorophenyl)acrylate], in the series on SH-SY5Y cells, the % protection against menadione toxicity at 1 µM is 29.6% and the viability at 1 µM came to 71.6 ± 3.74%. Further, in the series with HepG2 cells (setting [1]), the “HepG2 LD50” value was more than 100 µM.

For `CC(=O)NCCc1c[nH]c2ccc(OC(=O)/C=C/c3ccc(Br)cc3)cc12` [Compound 10, 3-(2-acetamidoethyl)-1H-indol-5-yl (E)-3-(4-bromophenyl)acrylate], in the series on SH-SY5Y cells, the % protection against menadione toxicity at 1 µM was determined as 27.6% and the viability at 1 µM was found to be 72.4 ± 3.75%. In addition, the “HepG2 LD50” value with HepG2 cells (setting [1]) is more than 100 µM.

Regarding `CC(=O)NCCc1c[nH]c2ccc(OC(=O)/C=C/c3ccc(Cl)cc3)cc12` [Compound 11, 3-(2-acetamidoethyl)-1H-indol-5-yl (E)-3-(4-chlorophenyl)acrylate], in the series with SH-SY5Y cells, the % protection against menadione toxicity at 1 µM is 57% and the viability at 1 µM stood at 85.7 ± 2.93%. For the same compound, the “HepG2 LD50” value in the series on HepG2 cells (setting [1]) is more than 100 µM.

On to `CC(=O)NCCc1c[nH]c2ccc(OC(=O)/C=C/c3ccc(Cl)c(Cl)c3)cc12` [Compound 12, 3-(2-acetamidoethyl)-1H-indol-5-yl (E)-3-(3,4-dichlorophenyl)acrylate], for which, in the series with SH-SY5Y cells, the % protection against menadione toxicity at 1 µM was found to be 59.3% and the viability at 1 µM amounted to 86.5 ± 3.04%. Besides, the “HepG2 LD50” value in the series with HepG2 cells (setting [1]) is more than 100 µM.

As for `CC(=O)NCCc1c[nH]c2ccc(OC(=O)/C=C/c3ccccc3C(F)(F)F)cc12` [Compound 13, 3-(2-acetamidoethyl)-1H-indol-5-yl (E)-3-(2-(trifluoromethyl)phenyl)acrylate], in the series on SH-SY5Y cells, the % protection against menadione toxicity at 1 µM came out at 36.2% and the viability at 1 µM turned out to be 74.9 ± 2.19%. For the same compound, the “HepG2 LD50” value in the series with HepG2 cells (setting [1]) was more than 100 µM.

For the compound `CC(=O)NCCc1c[nH]c2ccc(OC(=O)/C=C/c3cccc(C(F)(F)F)c3)cc12` [Compound 14, 3-(2-acetamidoethyl)-1H-indol-5-yl (E)-3-(3-(trifluoromethyl)phenyl)acrylate], in the series on SH-SY5Y cells, the % protection against menadione toxicity at 1 µM stood at 44.8% and the viability at 1 µM is 78.5 ± 3.03%. Also, the “HepG2 LD50” value in the series on HepG2 cells (setting [1]) was more than 100 µM.

Turning to `CC(=O)NCCc1c[nH]c2ccc(OC(=O)/C=C/c3ccc(C(F)(F)F)cc3)cc12` [Compound 15, 3-(2-acetamidoethyl)-1H-indol-5-yl (E)-3-(4-(trifluoromethyl)phenyl)acrylate], in the series with SH-SY5Y cells, the % protection against menadione toxicity at 1 µM was determined as 31.6% and the viability at 1 µM amounted to 73.2 ± 3.43%. In the series on HepG2 cells (setting [1]), the “HepG2 LD50” value was more than 100 µM.

Regarding `CC(=O)NCCc1c[nH]c2ccc(OC(=O)/C=C/c3ccc([N+](=O)[O-])cc3)cc12` [Compound 16, 3-(2-acetamidoethyl)-1H-indol-5-yl (E)-3-(4-nitrophenyl)acrylate], in the series with SH-SY5Y cells, the % protection against menadione toxicity at 1 µM amounted to 53.6% and the viability at 1 µM turned out to be 84.3 ± 2.15%. Besides, in the series with HepG2 cells (setting [1]), the “HepG2 LD50” value is more than 100 µM.

On to `COc1ccc2[nH]cc(CCNC(C)=O)c2c1` [Melatonin, reference compound], for which, in the series with SH-SY5Y cells, the % protection against menadione toxicity at 1 µM came to 37.4% and the viability at 1 µM stood at 72.9 ± 5.24%. Also, the “HepG2 LD50” value in the series with HepG2 cells (human, 24 h) was more than 100 µM.
